Data: patent publication US9597407B2, “Targeted antimicrobial moieties” (C3 Jian, Inc., priority 2009, dated 2017)
Entries after “also recorded” stand apart in the source; their conditions may differ.

Tested on: bacteria
Assay: Binding of targeting peptides to microorganisms (Table 3)
Details: microorganism bound by the targeting peptide; binding in aqueous buffers chosen by peptide solubility, preferably 1x PBS

Substance	Target(s)
PF-320 (DSGYYALLENKEERVVWDGEVVANNIFNNLWIVVNKVKTG; Peptide with targeting and/or antimicrobial activity)	S. mutans; also recorded: E. coli
PF-323 (ARESIEKSHVPVDATIVGVVDSFEVFDE; Peptide with targeting and/or antimicrobial activity)	S. mutans
PF-324 (HFSLL; Peptide with targeting and/or antimicrobial activity)	C. difficile
PF-325 (LTIDEKLRNHR; Peptide with targeting and/or antimicrobial activity)	S. mutans; also recorded: E. coli
PF-326 (VIVGNLGAQKEKRNDTPISAKKDIMGDKTVRVRADLHH; Peptide with targeting and/or antimicrobial activity)	S. mutans; also recorded: E. coli
PF-328 (NGNEKAFSEVENLVK; Peptide with targeting and/or antimicrobial activity)	S. mutans
PF-329 (IGILFDKSVRKY; Peptide with targeting and/or antimicrobial activity)	S. epidermidis
PF-333 (YMTKKLVEMAEQQMAGKSNR; Peptide with targeting and/or antimicrobial activity)	S. mutans
PF-334 (QQYLILDRM; Peptide with targeting and/or antimicrobial activity)	S. epidermidis; also recorded: C. difficile
PF-337 (YMTKKLVEMAERQMAGK; Peptide with targeting and/or antimicrobial activity)	S. epidermidis
PF-338 (KGTSCPDQLSKAIRQSI; Peptide with targeting and/or antimicrobial activity)	S. mutans
PF-340 (VKDVLLELFNKIIGA; Peptide with targeting and/or antimicrobial activity)	S. mutans; also recorded: E. coli
PF-348 (ESASAAEWYNPNMNVKKAICMG; Peptide with targeting and/or antimicrobial activity)	B. subtilis; also recorded: E. coli; also recorded: P. aeruginosa; also recorded: C. albicans; also recorded: E. faecalis; also recorded: C. jejuni
PF-351 (YLFFKGKKVAEEEATKDEVKR; Peptide with targeting and/or antimicrobial activity)	S. mutans
PF-352 (RVKKIG; Peptide with targeting and/or antimicrobial activity)	C. jeikeium
PF-359 (MTVMEDPGSEQRNKIQSPMKGEDFSALFGR; Peptide with targeting and/or antimicrobial activity)	S. epidermidis and B. fragilis and P. aeruginosa and C. albicans and MRSA and E. faecalis and C. jeikeium
PF-361 (NQVTEGIRLLVE; Peptide with targeting and/or antimicrobial activity)	S. epidermidis; also recorded: E. coli; also recorded: E. faecalis; also recorded: C. jejuni
PF-364 (LVNGIKI; Peptide with targeting and/or antimicrobial activity)	S. epidermidis; also recorded: B. fragilis; also recorded: P. aeruginosa; also recorded: C. jeikeium; also recorded: C. jejuni
PF-365 (LYKQKIQLEEELEKLKDDRQ; Peptide with targeting and/or antimicrobial activity)	S. epidermidis; also recorded: B. subtilis; also recorded: B. fragilis; also recorded: P. aeruginosa; also recorded: C. albicans
PF-367 (TKTPGTFTPGTGIQKTAVPL; Peptide with targeting and/or antimicrobial activity)	B. subtilis
PF-368 (MLKQTA; Peptide with targeting and/or antimicrobial activity)	C. jeikeium; also recorded: C. jejuni
PF-371 (TFIYNEF; Peptide with targeting and/or antimicrobial activity)	S. epidermidis; also recorded: B. fragilis; also recorded: C. jejuni
PF-372 (KKQDKRIEDKYKRMKKGD; Peptide with targeting and/or antimicrobial activity)	C. jeikeium; also recorded: C. jejuni
PF-384 (HISKERFEAY; Peptide with targeting and/or antimicrobial activity)	E. faecalis; also recorded: C. jeikeium; also recorded: C. jejuni

Same assay, conditions: peptide binding in aqueous buffers that varied depending on peptide solubility; preferably 1x PBS

Substance	Target(s) (microorganisms bound by the targeting peptide)
PF-388 (ITPLLDEIGKVCIDKISK; Peptide with targeting and/or antimicrobial activity)	E. faecalis; also recorded: C. jeikeium; also recorded: C. jejuni
PF-400 (VIAWKFRNKFENSGV; Peptide with targeting and/or antimicrobial activity)	S. epidermidis; also recorded: E. coli; also recorded: S. pneumoniae; also recorded: E. faecalis; also recorded: C. jeikeium
PF-402 (FIDVLKSKINEFLN; Peptide with targeting and/or antimicrobial activity)	S. epidermidis; also recorded: P. aeruginosa; also recorded: E. faecalis; also recorded: C. jejuni
PF-409 (DLVQSILSEFKKSG; Peptide with targeting and/or antimicrobial activity)	S. epidermidis and MRSA and C. jeikeium and C. jejuni
PF-412 (TSGWLGQLEQ; Peptide with targeting and/or antimicrobial activity)	M. luteus; also recorded: E. coli; also recorded: C. albicans; also recorded: C. jeikeium; also recorded: C. jejuni
PF-435 (MSRWDGHSDKGEAPAGKPPMHGFGLNGENK; Peptide with targeting and/or antimicrobial activity)	C. jeikeium
PF-436 (KKHVLVGKQEKNG; Peptide with targeting and/or antimicrobial activity)	C. jeikeium
PF-438 (QPYFQNQFKKITGYTPLQYRKEKR; Peptide with targeting and/or antimicrobial activity)	S. epidermidis; also recorded: E. coli; also recorded: S. pneumoniae; also recorded: C. jeikeium; also recorded: C. jejuni
PF-441 (TQVHKMARGIDPGPANGIYR; Peptide with targeting and/or antimicrobial activity)	C. jeikeium
PF-463 (MVILVFSLIFIFTDNYLVYQSKSIKEDVMI; Peptide with targeting and/or antimicrobial activity)	S. epidermidis; also recorded: E. coli; also recorded: P. aeruginosa; also recorded: C. albicans; also recorded: S. pneumoniae; also recorded: E. faecalis; also recorded: M. smegmatis
PF-481 (DELYEIMDKVIEEFNKDIEQNNNNGNNEDLTENKIN; Peptide with targeting and/or antimicrobial activity)	C. jeikeium
PF-483 (EDNKDKKDKKDK; Peptide with targeting and/or antimicrobial activity)	P. mirabilis; also recorded: C. jeikeium; also recorded: C. jejuni
PF-486 (MQKEGEEDY; Peptide with targeting and/or antimicrobial activity)	S. mutans
PF-487 (MYKAIAVLAMTIMAFFIFVYPFFIVGLILG; Peptide with targeting and/or antimicrobial activity)	S. mutans; also recorded: E. coli
PF-488 (YPNEQGHHKNNLKNIIIE; Peptide with targeting and/or antimicrobial activity)	S. mutans; also recorded: E. coli
PF-489 (KVDRVSTTITEKIK; Peptide with targeting and/or antimicrobial activity)	S. mutans
PF-490 (RLILVSGNATVQK; Peptide with targeting and/or antimicrobial activity)	S. mutans; also recorded: E. coli
PF-491 (IHQYSSKPDIVGQEAKTVQQINS; Peptide with targeting and/or antimicrobial activity)	S. mutans; also recorded: E. coli
PF-492 (IQIDAASFYSISKSTIK; Peptide with targeting and/or antimicrobial activity)	S. mutans; also recorded: B. subtilis; also recorded: E. coli
PF-493 (PGAFFFCRGRGCWCGIGW; Peptide with targeting and/or antimicrobial activity)	S. mutans; also recorded: B. subtilis; also recorded: E. coli
PF-494 (FTEPLRPLQAKGQIISIKPSTSSS; Peptide with targeting and/or antimicrobial activity)	S. mutans
PF-495 (KGIYKKRTY; Peptide with targeting and/or antimicrobial activity)	S. mutans; also recorded: E. coli
PF-496 (EVTKRLVALAQQQLRG; Peptide with targeting and/or antimicrobial activity)	S. mutans; also recorded: E. coli
PF-498 (MSEEEEVSEKVYNYLRRNEFFEVRKEEFSA; Peptide with targeting and/or antimicrobial activity)	S. mutans; also recorded: E. coli
